Test results taken from PubChem BioAssay (NCI).
Where “and” joins values, the source holds several entries; their conditions need not be identical. Equal entries are not always repeated.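 In this assay, cells in 96-well plates receive the compound at five concentrations for 48 hours. Endpoints are linearly interpolated between the surrounding concentrations. GI50: concentration for 50% inhibition of growth. TGI marks complete inhibition of growth.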

Legend:
Test in all cases: growth of human tumour cells (NCI), 48 h
OVCAR-3 ovarian = test system: OVCAR-3 ovarian
SK-MEL-28 melanoma = test system: SK-MEL-28 melanoma
NCI/ADR-RES ovarian = test system: NCI/ADR-RES ovarian
MDA-MB-435 = test system: MDA-MB-435
SF-295 CNS = test system: SF-295 CNS
OVCAR-8 ovarian = test system: OVCAR-8 ovarian
CAKI-1 renal = test system: CAKI-1 renal
K-562 leukemia = test system: K-562 leukemia
HOP-62 NSCLC = test system: HOP-62 NSCLC
SR leukemia = test system: SR leukemia

Structure (SMILES)	GI50 (OVCAR-3 ovarian) [µM]	TGI (OVCAR-3 ovarian)	GI50 (SK-MEL-28 melanoma) [µM]	TGI (SK-MEL-28 melanoma)	GI50 (NCI/ADR-RES ovarian) [µM]	TGI (NCI/ADR-RES ovarian) [µM]	GI50 (MDA-MB-435) [µM]	TGI (MDA-MB-435) [µM]	GI50 (SF-295 CNS) [µM]	TGI (SF-295 CNS)	GI50 (OVCAR-8 ovarian) [µM]	TGI (OVCAR-8 ovarian)	GI50 (CAKI-1 renal) [µM]	TGI (CAKI-1 renal)	GI50 (K-562 leukemia) [µM]	TGI (K-562 leukemia)	TGI (HOP-62 NSCLC)	GI50 (HOP-62 NSCLC) [µM]	GI50 (SR leukemia) [µM]	TGI (SR leukemia)
CCSc1nc(N)c2cnn(C)c2n1	30.6	> 100 µM	62.3	> 100 µM	> 100	> 100	38.7	> 100	51.7	> 100 µM	49.4	> 100 µM	25.9	> 100 µM	54.5	> 100 µM	–	–	–	–
COc1cc(CC(=O)c2ccc3c(c2)OCO3)cc(OC)c1OC	–	> 100 µM	–	> 100 µM	–	–	–	–	–	> 100 µM	–	> 100 µM	–	> 100 µM	–	> 100 µM	> 100 µM	–	–	–
Cn1c(COC(=O)NCCN2CCOCC2)nc2c(N3CCOCC3)nc(-c3ccccc3)nc21	0.343	1.53 µM	1.51	2.94 µM	1.93	6.78	1.07	2.47	2.09	5.99 µM	1.3	3.4 µM	0.449	1.72 µM	0.523	> 100 µM	3.3 µM	1.29	–	–
COC(=O)C1CCC(=NC2c3ccccc3-c3ccccc32)N1 (configuration not stated)	–	> 100 µM	–	> 100 µM	–	–	–	–	–	> 100 µM	–	> 100 µM	–	> 100 µM	–	> 100 µM	> 100 µM	–	–	–
Clc1ccccc1C1=NN(c2ccccc2)C2c3cc(Br)ccc3OCC12 (configuration not stated)	–	> 100 µM	–	> 100 µM	–	–	–	–	–	> 100 µM	–	> 100 µM	–	–	–	> 100 µM	> 100 µM	–	–	–
CCCCCCCCCCCCCCCC(=O)N[C@H]1CCc2cc(OC)c(OC)c(OC)c2-c2ccc(SC)c(=O)cc21	0.53	0.642 µM and 3.01 µM	–	24.3 µM and 17.9 µM	–	–	–	–	1.12	8.89 µM and 5.44 µM	3.31	8.92 µM and 12.6 µM	6.7	80 µM and 21.8 µM	0.709	11.1 µM and 14.5 µM	62.6 µM and 18.2 µM	2.13	0.597	8.28 µM and 13.2 µM
CCOC(=N)CC(=O)NC(C)c1ccccc1 (configuration not stated)	–	> 100 µM	–	> 100 µM	–	–	–	–	–	> 100 µM	–	> 100 µM	–	> 100 µM	–	> 100 µM	> 100 µM	–	–	> 100 µM
O=C1c2ccccc2C(=O)c2c1ccc1c3ccccc3n(Cc3ccccc3)c21	–	> 100 µM	–	–	–	–	–	–	–	> 100 µM	–	> 100 µM	–	> 100 µM	–	> 100 µM	> 100 µM	–	–	> 100 µM
C=C(C)[C@@H]1CCC[C@]2(C(=O)O)CC[C@]3(C)[C@@H](CC[C@@H]4[C@@]5(C)C/C(=C/c6ccncc6)C(=O)C(C)(C)[C@@H]5CC[C@]43C)[C@@H]12	1.89	3.85 µM	2.1	4.58 µM	3.99	> 100	2.6	6.88	2.04	6.63 µM	3.07	> 100 µM	3.34	13.9 µM	3.3	> 100 µM	8.28 µM	2.78	–	–
